These results are taken from patent US20220340566A1, “BENZYL AMINE-CONTAINING 5,6-HETEROAROMATIC COMPOUNDS USEFUL AGAINST MYCOBACTERIAL INFECTION” (priority 2019, published 2022).

Like-named read-outs stand apart in the source and are kept apart here.

Data set [1] relates to Mycobacterium avium ATCC700898. In words: Determination of IC85 against M. avium (resazurin fluorescence). Type of data set: cell-based. The settings on record: 37° C., 3 days incubation then resazurin, fluorescence one day later.
Data set [2] can be described thus: Metabolic stability test in pooled human liver microsomes. Type of data set: in vitro ADME. The settings on record: human liver microsomes 0.5 mg protein/mL, 1 mmol/L NADPH, 37° C., 30 minutes. In outline: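 Remaining-rate readout: parent compound left after 30 min versus 0 min (set as 100%), measured by LC/MS/MS or SPE/MS. Oxidative reaction ran at 37° C. with 1 mmol/L NADPH, 0.5 mg protein/mL pooled human microsomes, 50 mmol/L Tris-HCl pH 7.4 buffer.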

Where [3] appears, read: Mycobacterium avium, ATCC700898, M. avium ATCC700898, CAMHB medium, read-out: IC85.

Regarding `CCOc1ccc(N2CCN(c3ccc(CNC(=O)c4c(CC)nc5cc(F)ccn45)cc3F)C[C@@H]2C)cc1.Cl` [Compound I-1-109], the IC85 in data set [1] (setting [3]) was 7.1 nM. Further, in data set [2], the “MS_h_% (remaining amount of compound after reaction, 0 minute = 100%)” value came out at 80%.
The matching figures for `CCc1nc2cc(F)ccn2c1C(=O)NCc1ccc(N2CCN(c3ccc(OC4CC4)cc3)[C@@H](C)C2)c(F)c1.Cl` [Compound I-1-110]: 9.3 nM and 80%.
The matching figures for `CCc1nc2cc(F)ccn2c1C(=O)NCc1ccc(N2CCN(c3ccc(OC(C)C)cc3)[C@@H](C)C2)c(F)c1.Cl` [Compound I-1-111]: 7.1 nM and 88%.
Take `CCc1nc2cc(F)ccn2c1C(=O)NCc1ccc(N2CCN(c3ccc(C(F)(F)F)cc3)[C@@H](C)C2)c(F)c1.Cl` [Compound I-1-112]: the IC85 in data set [1] (setting [3]) is 1.4 nM. Further, in data set [2], the “MS_h_% (remaining amount of compound after reaction, 0 minute = 100%)” value is 69%.
The matching figures for `CCc1nc2cc(F)ccn2c1C(=O)NCc1ccc(N2CCN(c3ccc(C(F)(F)F)cn3)[C@@H](C)C2)c(F)c1.Cl` [Compound I-1-113]: 4.8 nM and 79%.
On to `CCc1nc2cc(F)ccn2c1C(=O)NCc1ccc(N2CCN(c3ccc(C(F)(F)F)cn3)[C@@H](C)C2)c(F)c1.Cl` [Compound I-1-114], for which, in data set [1] (M. avium ATCC700898, CAMHB medium), the IC85 came to 7.4 nM. Moreover, the “MS_h_% (remaining amount of compound after reaction, 0 minute = 100%)” value in data set [2] was 87%.
For the compound `CCc1nc2cc(F)ccn2c1C(=O)NCc1ccc(N2CCN(c3ccc(OCC(F)(F)F)cc3)[C@@H](C)C2)c(F)c1.Cl` [Compound I-1-115], the IC85 in data set [1] (setting [3]) was 4.6 nM. Besides, the “MS_h_% (remaining amount of compound after reaction, 0 minute = 100%)” value in data set [2] was determined as 69%.
`CCc1nc2cc(F)ccn2c1C(=O)NCc1ccc(N2CCN(c3ccc(OCC(F)(F)F)nc3)[C@@H](C)C2)c(F)c1.Cl` [Compound I-1-116]: the IC85 in data set [1] (setting [3]) was found to be 11 nM. Also, the “MS_h_% (remaining amount of compound after reaction, 0 minute = 100%)” value in data set [2] is given as 87%.
The corresponding values for `CCc1nc2cc(F)ccn2c1C(=O)NCc1ccc(N2CCN(c3ccc(OC(F)(F)F)c(F)c3)[C@@H](C)C2)c(F)c1.Cl` [Compound I-1-117] are 2.5 nM and 83%.
Consider `CCc1nc2cc(F)ccn2c1C(=O)NCc1ccc(N2CCN(c3ccc(OC(F)(F)F)cc3F)[C@@H](C)C2)c(F)c1.Cl` [Compound I-1-118], for which the IC85 in data set [1] (setting [3]) turned out to be 7.6 nM. For the same compound, in data set [2], the “MS_h_% (remaining amount of compound after reaction, 0 minute = 100%)” value was found to be 97%.
Turning to `CCc1nc2cc(F)ccn2c1C(=O)NCc1ccc(N2CCN(c3cc(F)c(OC(F)(F)F)c(F)c3)[C@@H](C)C2)c(F)c1.Cl` [Compound I-1-119], the IC85 in data set [1] (setting [3]) stood at 6.5 nM. In addition, the “MS_h_% (remaining amount of compound after reaction, 0 minute = 100%)” value in data set [2] was 63%.
In the case of `CCOc1ccc(N2CCN(c3ccc(CNC(=O)c4c(CC)nc5cc(F)ccn45)cc3F)C[C@@H]2C)cn1.Cl` [Compound I-1-120], in data set [1] (setting [3]), the IC85 came to 12 nM. For the same compound, the “MS_h_% (remaining amount of compound after reaction, 0 minute = 100%)” value in data set [2] is listed as 71%.
Regarding `CCc1nc2cc(F)ccn2c1C(=O)NCc1ccc(N2CCN(c3ccc(OC(F)(F)C(F)(F)F)cc3)[C@@H](C)C2)c(F)c1.Cl` [Compound I-1-121], the IC85 in data set [1] (setting [3]) was 3 nM. For the same compound, in data set [2], the “MS_h_% (remaining amount of compound after reaction, 0 minute = 100%)” value came out at 95%.
Turning to `Cc1nn2ccc(Br)cc2c1C(=O)NCc1ccc(N2CCN(c3ccc(OC(F)(F)F)cc3)[C@@H](C)C2)c(F)c1.Cl` [Compound I-1-122], the IC85 in data set [1] (setting [3]) was 66 nM. For the same compound, in data set [2], the “MS_h_% (remaining amount of compound after reaction, 0 minute = 100%)” value turned out to be 81%.
Take `COc1ccn2nc(C)c(C(=O)NCc3ccc(N4CCC(c5ccc(OC(F)(F)F)cc5)CC4)c(F)c3)c2c1.Cl` [Compound I-1-123]: the IC85 in data set [1] (setting [3]) was 14 nM. Further, the “MS_h_% (remaining amount of compound after reaction, 0 minute = 100%)” value in data set [2] is 77%.
The corresponding values for `CCc1nc2cc(F)ccn2c1C(=O)NCc1ccc(N2CCN(c3ccc(OC(F)(F)F)cc3)[C@H]3CCCC[C@@H]32)c(F)c1.Cl` [Compound I-1-124] are 870 nM and 63%.
The matching figures for `COc1ccn2nc(C)c(C(=O)NCc3ccc(N4CCN(c5ccc(OC(F)(F)F)cc5)[C@H]5CCCC[C@@H]54)c(F)c3)c2c1` [Compound I-1-125]: 780 nM and 68%.
Take `Cc1ccn2nc(C(F)(F)F)c(C(=O)NCc3ccc(N4CCN(c5ccc(OC(F)(F)F)cc5)[C@@H](C)C4)c(F)c3)c2c1.Cl` [Compound I-1-126]: the IC85 in data set [1] (setting [3]) worked out at 270 nM. The “MS_h_% (remaining amount of compound after reaction, 0 minute = 100%)” value in data set [2] worked out at 77%.
The corresponding values for `CCc1nc2cc(F)ccn2c1C(=O)NCc1ccc(N2CCC(c3ccc(OC(F)(F)F)cc3)CC2)c(Cl)c1.Cl` [Compound I-1-127] are 7.7 nM and 93%.
The matching figures for `COc1ccn2nc(C)c(C(=O)NCc3ccc(N4CCC(c5ccc(OC(F)(F)F)cc5)CC4)c(Cl)c3)c2c1.Cl` [Compound I-1-128]: 18 nM and 85%.
The matching figures for `COc1ccn2nc(C)c(C(=O)NCc3cc(F)c(N4CCN(c5ccc(OC(F)(F)F)cc5)[C@@H](C)C4)c(F)c3)c2c1.Cl` [Compound I-1-129]: 6.8 nM and 80%.
Take `COc1ccn2nc(C)c(C(=O)NCc3ccc(N4CCN(c5ccc(OC(F)(F)F)cc5)[C@@H](C)C4)c(F)c3F)c2c1.Cl` [Compound I-1-130]: the IC85 in data set [1] (setting [3]) stood at 49 nM. The “MS_h_% (remaining amount of compound after reaction, 0 minute = 100%)” value in data set [2] is listed as 74%.
The matching figures for `COc1ccn2nc(C)c(C(=O)NCc3cc(F)c(N4CCN(c5ccc(OC(F)(F)F)cc5)[C@@H](C)C4)cc3F)c2c1.Cl` [Compound I-1-131]: 45 nM and 73%.
As to `COc1ccn2nc(C)c(C(=O)NCc3ccc(N4CCN(c5ccc(OC(F)(F)F)cc5)[C@@H](C)C4)c(Cl)c3)c2c1.Cl` [Compound I-1-132], the IC85 in data set [1] (setting [3]) came out at 14 nM. Also, the “MS_h_% (remaining amount of compound after reaction, 0 minute = 100%)” value in data set [2] was found to be 62%.
In the case of `COc1ccn2nc(C)c(C(=O)NCc3cc(F)c(N4CCC(c5ccc(OC(F)(F)F)cc5)CC4)c(F)c3)c2c1.Cl` [Compound I-1-133], the IC85 in data set [1] (setting [3]) turned out to be 19 nM. The “MS_h_% (remaining amount of compound after reaction, 0 minute = 100%)” value in data set [2] is reported as 81%.
As to `CCc1nc2ccc(Cl)cn2c1C(=O)NCc1ccc(N2C[C@H](C)N(c3ccc(OCC(F)(F)F)nc3)C[C@H]2C)c(F)c1.Cl` [Compound I-1-134], in data set [1] (setting [3]), the IC85 worked out at 43 nM. Further, in data set [2], the “MS_h_% (remaining amount of compound after reaction, 0 minute = 100%)” value was 65%.
As to `CCc1nc2cc(F)ccn2c1C(=O)NCc1ccc(N2C[C@H](C)N(c3ccc(OCC(F)(F)F)nc3)C[C@H]2C)c(F)c1.Cl` [Compound I-1-135], the IC85 in data set [1] (setting [3]) was found to be 120 nM. Further, the “MS_h_% (remaining amount of compound after reaction, 0 minute = 100%)” value in data set [2] is 75%.
The matching figures for `CCc1nc2cc(F)ccn2c1C(=O)NCc1ccc(N2C[C@H](C)N(c3ccc(OC(F)(F)F)cc3)C[C@H]2C)c(F)c1.Cl` [Compound I-1-136]: 16 nM and 86%.
The matching figures for `Cc1nc2ccc(Cl)cn2c1C(=O)NCc1ccc(N2C[C@H](C)N(c3ccc(OCC(F)(F)F)nc3)C[C@H]2C)c(F)c1.Cl` [Compound I-1-137]: 100 nM and 91%.
The corresponding values for `CCc1nc2ccc(Cl)cn2c1C(=O)NCc1ccc(C2=CCC(c3ccc(OC(F)(F)F)cc3)CC2)c(F)c1.Cl` (stereo not drawn) [Compound I-1-138] are 6.8 nM and 83%.
`CCc1nc2ccc(Cl)cn2c1C(=O)NCc1ccc(N2CCN(c3ccc(OC(F)(F)F)cc3)[C@@H](C)C2)c(Cl)c1.Cl` [Compound I-1-139]: the IC85 in data set [1] (setting [3]) amounted to 9 nM. Besides, the “MS_h_% (remaining amount of compound after reaction, 0 minute = 100%)” value in data set [2] is 61%.
The matching figures for `Cc1nc2ccc(Cl)cn2c1C(=O)NCc1ccc(N2CCN(c3ccc(OC(F)(F)F)cc3)[C@@H](C)C2)c(Cl)c1.Cl` [Compound I-1-140]: 5.7 nM and 89%.
The matching figures for `CCc1nc2cc(F)ccn2c1C(=O)NCc1ccc(N2CCN(c3ccc(OC(F)(F)F)cc3)[C@@H](C)C2)c(Cl)c1.Cl` [Compound I-1-141]: 2 nM and 93%.
The matching figures for `CCc1nc2ccc(Cl)cn2c1C(=O)NCc1ccc(C2CCN(c3ccc(OCC(F)(F)F)nc3)CC2)cc1F.Cl` [Compound I-1-142]: 30 nM and 71%.
Turning to `CCOc1ccc(N2CCC(c3ccc(CNC(=O)c4c(CC)nc5ccc(Cl)cn45)c(F)c3)CC2)cc1.Cl` [Compound I-1-143], the IC85 in data set [1] (setting [3]) worked out at 23 nM. Besides, the “MS_h_% (remaining amount of compound after reaction, 0 minute = 100%)” value in data set [2] came to 77%.
The matching figures for `CCc1nc2ccc(Cl)cn2c1C(=O)NCc1ccc(C2CCN(c3ccc(C(C)(C)C)cc3)CC2)cc1F.Cl` [Compound I-1-144]: 17 nM and 67%.
Turning to `CCCCOc1ccc(N2CCC(c3ccc(CNC(=O)c4c(CC)nc5ccc(Cl)cn45)c(F)c3)CC2)cc1.Cl` [Compound I-1-145], in data set [1] (setting [3]), the IC85 came to 16 nM. Also, the “MS_h_% (remaining amount of compound after reaction, 0 minute = 100%)” value in data set [2] is reported as 80%.
Take `CCc1nc2cc(F)ccn2c1C(=O)NCc1ccc(C2CCN(c3ccc(OCC(F)(F)F)nc3)CC2)cc1F.Cl` [Compound I-1-146]: the IC85 in data set [1] (setting [3]) was determined as 26 nM. Also, the “MS_h_% (remaining amount of compound after reaction, 0 minute = 100%)” value in data set [2] was 85%.
With `CCOc1ccc(N2CCC(c3ccc(CNC(=O)c4c(CC)nc5cc(F)ccn45)c(F)c3)CC2)cc1.Cl` [Compound I-1-147], in data set [1] (setting [3]), the IC85 turned out to be 8.3 nM. In addition, the “MS_h_% (remaining amount of compound after reaction, 0 minute = 100%)” value in data set [2] came to 91%.
